From patent publication US12036319B2, “Polyvalent sting activating compositions and uses thereof” (The Board of Regents of the University of Texas System, priority 2020, dated 2024)

Assays:
TC-1 tumors = experiment: Tumor therapy, TC-1 tumor model; assay type: in vivo, mouse; settings: TC-1, intratumoral, four injections, versus 5% glucose
Protocol: Tumor therapy experiments. Mice were subcutaneously inoculated with MC38 cells (1.0×10^6) or TC-1 cells (1.0×10^5) into the right flank. Tumor size was measured every other day via a digital caliper, and tumor volume was calculated as 0.5×length×width^2. […] Mice were injected 3× in MC38 model and 4× in TC-1 model with treatments spaced 4 d apart. Mice were euthanized at a tumor burden endpoint of 2,000 mm^3.

[1] = tested on: resected human tissues (squamous cell carcinoma from the base of tongue, cervical tumor tissues, sentinel lymph node); experiment: STING activation in freshly resected human tissues; settings: ex vivo injection, 24 h at 37° C.; cGAMP 80 ng, PC7A 50 μg
Description: (§1) RT-qPCR. Total RNAs were extracted from cells or human tissues by using RNeasy mini kit (QIAGEN). RNA quantity and quality were confirmed using NanoDrop (DeNovix DS-11). Genomic DNA was removed and cDNA was synthesized using an iScript™ gDNA clear cDNA synthesis kit (Bio-Rad). Bio-Rad SoAdvanced™ universal SYBR green supermix and CFX connect real-time system were used for PCR analysis. Results were corrected by β-actin or GAPDH. DNA primers are listed as follows: • Mouse ifn-β: […]

STING = experiment: Time course of STING puncta, signaling and degradation in GFP-STING MEF and THP1 cells; assay type: cell-based
Description: (§2) Microscopy. […] In STING degradation assay, LysoTracker Red DND-99 (Thermo Scientific) was used to stain lysosomes in live cells. […] Samples were mounted in prolong gold antifade with Dapi stain (Thermo Scientific) and imaged using a Zeiss 700 confocal laser scanning microscope with a 63× oil objective. ImageJ was used to quantify co-localization by Pearson's correlation coefficient. Data are representative of at least twenty cells.
Western blot analysis. […] Briefly, cells were lysed in SDS sample buffer (with protease and phosphatase inhibitor cocktail) and heated for denaturation. […] Electro transfer was performed using 100 V for 60 min on ice. After transfer, the membrane was blocked either in 5% non-fat milk or BSA (phosphorylated protein) for 1 h at room temperature, and incubated with primary antibody overnight at 4° C. HRP-linked secondary antibody (Bio-Rad) was used for 1 h at room temperature before detection on X-ray film (GE Healthcare). Membrane was stripped in stripping buffer for 30 min and reused for […] (Sigma Aldrich) detection.
as §1

[2] = tested on: B16-F10 melanoma tumor model; experiment: Interferon-stimulated gene expression in B16-F10 tumor-bearing mice; assay type: in vivo, mouse
Protocol: RT-qPCR. […] Results were corrected by β-actin or GAPDH.
Mice were subcutaneously inoculated with B16F10 melanoma cells (1.0×10^5) or TC-1 cells (1.0×10^5) into the right flank. […] Mice were euthanized one-day post-injection, and tumors and draining lymph nodes were collected. Total RNAs were extracted by TRIzol (Invitrogen), and the expressions of interferon-stimulated genes (ifn-β, cxcl10, tnf-α, and irf7) were measured via RT-qPCR.

[3] = tested on: mutant STING-GFP in HEK293T cells; experiment: Downstream STING activation in HEK293T cells transfected with mutant STING plasmids; assay type: cell-based, human
Description: (§3) WT or R232H THP-1 reporter cells were purchased from Invitrogen.
as §2, §1

[4] = tested on: STING R232H variant in THP1 cells; experiment: IFN-β-Luc expression in THP1 cells harboring STING R232H; assay type: cell-based, human
Description: as §3

With `Nc1nc2c(ncn2[C@@H]2O[C@@H]3COP(=O)(O)OC4C(O)[C@H](n5cnc6c(N)ncnc65)O[C@@H]4COP(=O)(O)OC2C3O)c(=O)[nH]1` (stereo partly drawn) [cGAMP, cyclic guanosine monophosphate-adenosine monophosphate] the “extension of median survival” value (TC-1 tumors) was 4 days, the “ifn-β and cxcl10 mRNA expression over control” value [1] was “marginal effect” and the “time of peak immune response after stimulation” value (STING) was “around 6 h”. For the same compound, the “time to STING degradation” value (STING; STING-GFP MEFs) was at most 12 h, the “p-TBK1/p-IRF3 production and proinflammatory cytokine expression” value (STING; in the presence of brefeldin A (BFA, 10 μM)) was “fail to trigger p-TBK1/p-IRF3 production and proinflammatory cytokine expression” and the “STING activation in draining lymph nodes” value ([2]; intratumoral injection, cGAMP high dose 2.5 μg) was “minimal STING activation”. For the same compound, the “interferon-stimulated gene expression (ifn-β, cxcl10, tnf-α, irf7) in tumor” value ([2]; single intratumoral injection, 24 hours, PC7A 50 μg, cGAMP low dose 0.5 μg) was “failed to induce interferon-stimulated gene expressions”, the “condensate structures, TBK1 phosphorylation and ifn-β/cxcl10 expression” value [3] was “did not impact cGAMP-mediated STING activation” and the IFN-β-Luc expression [4] was “abrogated”.
